Literature values in US20240164409A1, “A METHOD OF REDUCING METHANE PRODUCTION IN A RUMINANT ANIMAL” (DIT AgTech Limited, priority 2021, published 2024).
Values after ≈ are worked out from the molar mass of the structure shown.

Settings: for Characterised as: water solubility in words

Compound	Characterised as	Solubility in water
O=[N+]([O-])OCCCO [3-nitrooxypropanol]	Soluble	–
BrC(Br)Br [Bromoform]	Sparingly soluble	3200 µg/mL (≈ 12.7 mM)
